Data from US12642798B2, “Aripiprazole prodrug composition” (ALKERMES PHARMA IRELAND LIMITED, priority 2014, dated 2026).

Assay: Particle size analysis by laser light scattering (Horiba)
Type: physicochemical
Details: solid particulate form prior to milling
Source text: The term “particle size” or “volume based particle size” or “volume based particle size distribution” as used herein is equivalent to and also referred to as the Dv50 or D50 and means that at least about 50% of the aripiprazole prodrug particles have a diameter of less than the size specified. The aforementioned terms are used interchangeably herein. For example a volume based particle size (Dv50) of less than 1000 nm, means that 50% of the particle population has a diameter of less than 1000 nm when measured by static or dynamic light scattering techniques known to those skilled in the art. […] Unless otherwise specified, all particle sizes are specified in terms of volume based measurements and are measured by laser light scattering/diffraction. Particle sizes are then determined based on Mie scattering theory. More specifically, unless otherwise specified, volume based particle size (Dv50) is determined using a Horiba LA-950 standard model laser particle size analyser. Deionized water or water with a small quantity (for example 0.1% w/w) of surface stabilizer (for example polysorbate 20) is used as the sizing medium unless otherwise specified. […]
The particle size of the present composition may be measured using techniques such as light scattering with either water or a dilute surface stabilizer solution as the diluent. […]

Row | Compound | particle size (Dv50) prior to milling
1 | CCCCCC(=O)OCN1C(=O)CCc2ccc(OCCCCN3CCN(c4cccc(Cl)c4Cl)CC3)cc21 [aripiprazole cavoxil, (7-(4-(4-(2,3-Dichlorophenyl)piperazin-1-yl)butoxy)-2-oxo-3,4-dihydroquinolin-1(2H)yl)methyl hexanoate] | greater than 8 microns
2 | CCCCCCCCCCCC(=O)OCN1C(=O)CCc2ccc(OCCCCN3CCN(c4cccc(Cl)c4Cl)CC3)cc21 [aripiprazole lauroxil, Dodecanoic acid, [7-[4-[4-(2,3-dichlorophenyl)-1-piperazinyl]butoxy]-3,4-dihydro-2-oxo-1(2H)-quinolinyl]methyl ester] | greater than 10 microns
